Assay results as given in patent publication US11185542B2, “Uses of dopamine beta-hydroxylase (DBH) inhibitors and serotonin receptor (5-HT) antagonists for the treatment of cancer” (Jiangsu Yahong Meditech Co., Ltd., priority 2016, dated 2021).
pIC50: −log10 of the molar value. Several values for one entry are separate records, joined by “and”; a condition that tells them apart may be missing. Equal values may be shown once.

Columns and labels:
[1] = clinical dosage of nepicastat 160 mg/day; read-out: plasma maximal concentration (Cmax); cited from earlier work
[2] = system: EMT-6 murine breast cancer xenograft; assay: In vivo tumor growth, EMT-6 murine breast cancer xenograft model (Example 6); design: species or system Mouse (Mus Musculus); details: Nepicastat 50 mg/kg, QD, oral
Method: (§1) Experiments using the murine H22, CT-26 and EMT-6 xenograft models were performed as described below.
(§2) Cells were cultured in RPMI-1640 medium supplemented with 10% FBS at 37° C. in an atmosphere of 5% CO2 in air. The tumor cells were routinely subcultured three times weekly. The cells that grew in an exponential growth phase were harvested and counted for tumor inoculation.
(§3) Mice (female, 6-8 weeks old) were inoculated subcutaneously at the right flank with the tumor cells (H22, EMT-6, or CT-26) in 0.1 mL PBS for tumor development. When the tumor volume reached approximately 60-80 mm^3, the mice were grouped randomly according to the animal body weight and tumor volume. Each group had 5-8 tumor-bearing mice.
(§4) The major endpoint was to determine if tumor growth could be delayed or mice could be cured. Tumor volume was measured three times weekly in two dimensions using a caliper, and the volume was expressed in mm^3 using the formula: V=0.5 a×b^2, where a and b are the long and short diameters of the tumor, respectively. The T/C value (in percent) was an indication of antitumor effectiveness, where T and C were the mean volume of the treated and control groups, respectively, on a given day. The T-C value was calculated according to TV. T-C was calculated with T as the median time (in days) required for the treatment group tumors to reach a predetermined size (e.g., TV as 1000 mm^3), and C as the median time (in days) for the control group tumors to reach the same size. The body weights were measured and recorded at the same time to observe the toxicity of the compounds. The animals were sacrificed at the termination of the study.
(§5) Summary statistics, including mean and the standard error of the mean (SEM), are provided for the tumor volume of each group at each time point. A two-way analysis of variance (ANOVA) was performed to compare body weight, tumor volume and tumor volume change. A one-way ANOVA was performed to compare tumor weight. All data were analyzed using GraphPad Prism 5. p<0.05 was considered to be statistically significant.
(§6) Nepicastat was also tested for in vivo tumor growth inhibition in CT-26 murine colon cancer and EMT-6 murine breast cancer xenograft models. Nepicastat was administered orally.

[3] = system: H22 murine hepatic cancer xenograft; assay: In vivo tumor growth, H22 murine hepatic cancer xenograft model, compared with anti-PD-1 mAb (Example 5); design: species or system Mouse (Mus Musculus); details: p.o.; for Tumor Volume (mm^3): QD x 20 days; for T/C (%) / TGI (%) tumor growth inhibition: QD
Method: as §1, §2, §3, §4, §5
The anti-cancer activity of nepicastat, etamicastat and anti-PD-1 monoclonal antibody (mAb) was evaluated in a H22 murine hepatic cancer xenograft model according to the experimental procedure described in Example 2.

[4] = system: CT-26 murine colon cancer xenograft; assay: In vivo tumor growth, CT-26 murine colon cancer xenograft model (Example 6); design: species or system Mouse (Mus Musculus); details: Nepicastat 50 mg/kg, QD, oral
Method: as §1, §2, §3, §4, §5, §6

[5] = system: H22 murine hepatocarcinoma cell line; assay: In vitro cell proliferation assay (CellTiter-Glo) in H22 murine hepatocarcinoma cell line; format: cell-based
Method: Methods: • (1) Cells were cultured in RPMI-1640 medium supplemented with 10% FBS, 100 U/ml penicillin, and […] streptomycin at 37° C. and 5% CO2 atmosphere. […] The anti-proliferative activity of amperozide, nepicastat, and paclitaxel was tested in the H22 murine hepatocarcinoma cell line according to the experimental procedure described in Example 1.

[6] = system: H22 murine hepatic cancer xenograft; assay: In vivo tumor growth, H22 murine hepatic cancer xenograft model (Example 4); design: species or system Mouse (Mus Musculus)
Method: as §1, §2, §3, §4, §5
The anti-cancer activity of amperozide and nepicastat was evaluated in a H22 murine hepatic cancer xenograft model according to the experimental procedure described in Example 2. Anti-cancer activity was evaluated by measuring changes in tumor volume.

[7] = Nepicastat 48 mg/kg, day 19, listed as nepicastat

Structure (SMILES): NCc1c[nH]c(=S)n1[C@H]1CCc2c(F)cc(F)cc2C1 [Nepicastat, nepicastat]
- Cmax [1]: ~200 nM
- T/C (%) ([2]; EMT-6 model, End): 76.91%
- TGI (%) tumor growth inhibition ([2]; EMT-6 model, End): 23.09%
- Tumor Volume (mm^3) in EMT-6 Model ([2]; day 5 (Initiation)): 61.55 ± 1.37 mm^3 and 61.55 ± 3.06 mm^3
- Tumor Volume (mm^3) in EMT-6 Model ([2]; day 8): 110.11 ± 2.13 mm^3
- Tumor Volume (mm^3) in EMT-6 Model ([2]; day 12): 229.32 ± 21.67 mm^3
- Tumor Volume (mm^3) in EMT-6 Model ([2]; day 15): 385.24 ± 66.33 mm^3
- Tumor Volume (mm^3) in EMT-6 Model ([2]; day 19 (End)): 697.23 ± 35.90 mm^3
- Tumor Volume (mm^3) ([3]; Nepicastat 50 mg/kg, day 3): 56.45 ± 4.42 mm^3
- Tumor Volume (mm^3) ([3]; Nepicastat 50 mg/kg, day 6): 107.64 ± 2.13 mm^3
- Tumor Volume (mm^3) ([3]; Nepicastat 50 mg/kg, day 9): 212.98 ± 15.54 mm^3
- Tumor Volume (mm^3) ([3]; Nepicastat 50 mg/kg, day 13): 369.64 ± 18.63 mm^3
- Tumor Volume (mm^3) ([3]; Nepicastat 50 mg/kg, day 16): 552.37 ± 34.69 mm^3
- Tumor Volume (mm^3) ([3]; Nepicastat 50 mg/kg, day 19): 677.68 ± 29.38 mm^3
- Tumor Volume (mm^3) ([3]; Nepicastat 50 mg/kg, day 22): 880.28 ± 33.41 mm^3
- Tumor Volume (mm^3) ([3]; Nepicastat 50 mg/kg, day 22, listed as nepicastat): 880.28 mm^3
- T/C (%) ([3]; Nepicastat 50 mg/kg, day 22): 51.21%
- TGI (%) tumor growth inhibition ([3]; Nepicastat 50 mg/kg, day 22): 48.79%
- Tumor Volume (mm^3) ([3]; Nepicastat 100 mg/kg, day 3): 56.41 ± 3.96 mm^3
- Tumor Volume (mm^3) ([3]; Nepicastat 100 mg/kg, day 6): 120.60 ± 12.92 mm^3
- Tumor Volume (mm^3) ([3]; Nepicastat 100 mg/kg, day 9): 238.00 ± 22.62 mm^3
- Tumor Volume (mm^3) ([3]; Nepicastat 100 mg/kg, day 13): 384.72 ± 54.05 mm^3
- Tumor Volume (mm^3) ([3]; Nepicastat 100 mg/kg, day 16): 658.54 ± 71.96 mm^3
- Tumor Volume (mm^3) ([3]; Nepicastat 100 mg/kg, day 19): 1049.88 ± 145.91 mm^3
- Tumor Volume (mm^3) ([3]; Nepicastat 100 mg/kg, day 22): 1275.47 ± 154.93 mm^3
- Tumor Volume (mm^3) ([3]; Nepicastat 100 mg/kg, day 22, listed as nepicastat): 1275.47 mm^3
- T/C (%) ([3]; Nepicastat 100 mg/kg, day 22): 74.20%
- TGI (%) tumor growth inhibition ([3]; Nepicastat 100 mg/kg, day 22): 25.80%
- T/C (%) ([4]; CT-26 model, End): 65.70%
- TGI (%) tumor growth inhibition ([4]; CT-26 model, End): 34.30%
- Tumor Volume (mm^3) in CT-26 Model ([4]; day 7 (Initiation)): 59.35 ± 1.65 mm^3 and 59.35 ± 3.69 mm^3
- Tumor Volume (mm^3) in CT-26 Model ([4]; day 10): 86.00 ± 11.91 mm^3
- Tumor Volume (mm^3) in CT-26 Model ([4]; day 14): 314.14 ± 33.19 mm^3
- Tumor Volume (mm^3) in CT-26 Model ([4]; day 17): 501.46 ± 50.04 mm^3
- Tumor Volume (mm^3) in CT-26 Model ([4]; day 21 (End)): 1087.75 ± 163.63 mm^3
- Cell viability (%) ([5]; 0.1 μM, 72 h, H22 cells): 103.2%
- anti-proliferative effect on H22 cell line ([5]; 1 μM and 0.1, in words): did not show any significant anti-proliferative effects
- viability at 0.1 µM ([5]; Mus musculus, H22, 72 h, 0.1 μM, 72 h, H22 cells, read-out: Cell viability (%)): 102%
- viability at 1 µM ([5]; Mus musculus, H22, 72 h, 1 μM, 72 h, H22 cells, read-out: Cell viability (%)): 94.4%
- pIC50 ([5]; Mus musculus, calculated from FIG. 1, read-out: IC50 in H22 murine hepatocarcinoma cells proliferation): 4.28
- T-C (days) (Reach 1000 mm^3) ([6]; Nepicastat 16 mg/kg): 1 days
- Tumor Volume ([6]; Nepicastat 16 mg/kg, day 5): 80 ± 6 mm^3
- Tumor Volume ([6]; Nepicastat 16 mg/kg, day 7): 140 ± 13 mm^3
- Tumor Volume ([6]; Nepicastat 16 mg/kg, day 9): 260 ± 25 mm^3
- Tumor Volume ([6]; Nepicastat 16 mg/kg, day 12): 542 ± 75 mm^3
- Tumor Volume ([6]; Nepicastat 16 mg/kg, day 14): 982 ± 111 mm^3
- Tumor Volume ([6]; Nepicastat 16 mg/kg, day 16): 1,454 ± 173 mm^3
- T/C (%) ([6]; Nepicastat 16 mg/kg, day 19): 84.1%
- TGI (%) tumor growth inhibition ([6]; Nepicastat 16 mg/kg, day 19): 15.9%
- Tumor Volume ([6]; Nepicastat 16 mg/kg, day 19): 2,546 ± 306 mm^3
- T-C (days) (Reach 1000 mm^3) ([6]; Nepicastat 48 mg/kg): 2 days
- Tumor Volume ([6]; Nepicastat 48 mg/kg, day 5): 80 ± 6 mm^3
- Tumor Volume ([6]; Nepicastat 48 mg/kg, day 7): 146 ± 12 mm^3
- Tumor Volume ([6]; Nepicastat 48 mg/kg, day 9): 249 ± 26 mm^3
- Tumor Volume ([6]; Nepicastat 48 mg/kg, day 12): 493 ± 74 mm^3
- Tumor Volume ([6]; Nepicastat 48 mg/kg, day 14): 795 ± 129 mm^3
- Tumor Volume ([6]; Nepicastat 48 mg/kg, day 16): 1,150 ± 188 mm^3
- T/C (%) ([6]; Nepicastat 48 mg/kg, day 19): 65.8%
- TGI (%) tumor growth inhibition ([6]; Nepicastat 48 mg/kg, day 19): 34.2%
- Tumor Volume ([6]; Nepicastat 48 mg/kg, day 19): 1,992 ± 349 mm^3
- T/C (%) [6, 7]: 66%
- Tumor Volume [6, 7]: 1992 mm^3
